Data from patent US20230265151A1, “GIP/GLP1 CO-AGONIST COMPOUNDS” (priority 2020, published 2023).
Read-outs that look alike come from different tables or passages of the source.

Tests used:
Assay type in all cases: cell-based
hGIPR = biological target: T1, hGIPR (Homo sapiens, UniProt P48546); experiment: Functional cAMP formation (HTRF) in HEK-293 clonal cells expressing hGIPR, 0.1% bovine casein, without or with 1.0% human serum albumin; settings: for EC50: cAMP, 0.1% bovine casein (no human serum albumin), geometric mean
T1 construct: expressed in transfected cells
T1 sequence (P48546 22-466): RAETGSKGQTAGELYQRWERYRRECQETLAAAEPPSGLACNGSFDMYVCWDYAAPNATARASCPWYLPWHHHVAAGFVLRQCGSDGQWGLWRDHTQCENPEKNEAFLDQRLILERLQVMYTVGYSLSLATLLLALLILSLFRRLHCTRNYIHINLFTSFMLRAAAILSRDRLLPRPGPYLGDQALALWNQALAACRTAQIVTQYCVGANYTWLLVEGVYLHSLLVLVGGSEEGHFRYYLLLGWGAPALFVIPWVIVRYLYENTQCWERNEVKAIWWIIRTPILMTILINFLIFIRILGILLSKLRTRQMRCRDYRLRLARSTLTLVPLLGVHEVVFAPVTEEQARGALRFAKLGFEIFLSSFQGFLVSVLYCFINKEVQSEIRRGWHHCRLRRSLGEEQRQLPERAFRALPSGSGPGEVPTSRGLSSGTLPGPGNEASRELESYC
Summary of the method: (§1)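 Cells were stimulated with peptide for 30 min at 37° C, then intracellular cAMP was measured by competitive HTRF (665/620 nm ratio) and converted to nM using a cAMP standard curve. Relative EC50 and Emax came from four-parameter logistic fits of percent maximal response against peptide concentration.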

hGCGR = biological target: T2, hGCGR (Homo sapiens, UniProt P47871); experiment: Functional cAMP formation (HTRF) in HEK-293 clonal cells expressing hGCGR, 0.1% bovine casein, without or with 1.0% human serum albumin
T2 construct: expressed in transfected cells
Summary of the method: as §1

hGLP-1R = hGLP-1R (Homo sapiens, UniProt P43220); experiment: Functional cAMP formation (HTRF) in HEK-293 clonal cells expressing hGLP-1R, 0.1% bovine casein, without or with 1.0% human serum albumin; parameters: expressed in transfected cells; settings: for Emax: percent of maximal response to GLP-1(7-36)NH2; for EC50: cAMP, 0.1% bovine casein (no human serum albumin), geometric mean
Summary of the method: as §1

[1] = hGIPR EC50, nM (SEM, n), 37° C.
[2] = hGCGR EC50, nM (SEM, n), cAMP, 37° C., 0.1% bovine casein (no human serum albumin), geometric mean
[3] = hGLP-1R EC50, nM (SEM, n), 37° C.

hGLP-1R, sequence (P43220 24-463): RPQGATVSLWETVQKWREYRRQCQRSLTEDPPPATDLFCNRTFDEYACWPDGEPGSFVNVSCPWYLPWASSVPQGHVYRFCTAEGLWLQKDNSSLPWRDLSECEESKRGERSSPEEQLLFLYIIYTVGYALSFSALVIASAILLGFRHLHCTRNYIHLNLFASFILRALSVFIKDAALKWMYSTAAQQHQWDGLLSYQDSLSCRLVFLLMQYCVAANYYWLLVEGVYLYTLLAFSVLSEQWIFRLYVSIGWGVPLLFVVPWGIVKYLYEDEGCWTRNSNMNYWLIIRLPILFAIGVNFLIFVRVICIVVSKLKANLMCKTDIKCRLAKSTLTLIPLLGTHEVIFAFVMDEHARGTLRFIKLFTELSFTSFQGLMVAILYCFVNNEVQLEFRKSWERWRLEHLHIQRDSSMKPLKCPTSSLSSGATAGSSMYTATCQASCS
T2 sequence (P47871 26-477): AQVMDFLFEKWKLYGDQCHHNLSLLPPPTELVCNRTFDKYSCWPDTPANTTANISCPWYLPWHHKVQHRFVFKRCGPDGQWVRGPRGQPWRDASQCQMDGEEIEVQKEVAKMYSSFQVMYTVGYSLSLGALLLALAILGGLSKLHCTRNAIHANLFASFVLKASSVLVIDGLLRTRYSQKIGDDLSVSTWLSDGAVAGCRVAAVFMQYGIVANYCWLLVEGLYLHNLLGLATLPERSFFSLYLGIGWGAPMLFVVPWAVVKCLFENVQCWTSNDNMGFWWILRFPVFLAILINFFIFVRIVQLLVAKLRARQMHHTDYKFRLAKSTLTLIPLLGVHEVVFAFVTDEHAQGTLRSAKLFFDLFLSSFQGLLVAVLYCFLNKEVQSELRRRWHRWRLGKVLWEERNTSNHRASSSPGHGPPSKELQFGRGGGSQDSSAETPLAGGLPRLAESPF

`CC[C@H](C)[C@H](NC(=O)[C@H](CCCN)NC(=O)[C@H](CC(=O)O)NC(=O)[C@H](CC(C)C)NC(=O)[C@](C)(CC(C)C)NC(=O)[C@@H](NC(=O)C(C)(C)NC(=O)[C@H](Cc1ccncc1)NC(=O)[C@H](CC(=O)O)NC(=O)[C@H](CO)NC(=O)[C@@H](NC(=O)[C@](C)(Cc1ccccc1F)NC(=O)[C@@H](NC(=O)CNC(=O)[C@H](CCC(=O)O)NC(=O)C(C)(C)NC(=O)[C@@H](N)Cc1ccc(O)cc1)[C@@H](C)O)[C@@H](C)O)[C@@H](C)CC)C(=O)N[C@@H](C)C(=O)N[C@@H](CCC(N)=O)C(=O)NC(C)(C)C(=O)N[C@@H](CCC(=O)O)C(=O)N[C@@H](Cc1ccccc1)C(=O)N[C@H](C(=O)N[C@@H](CCCCNC(=O)COCCOCCNC(=O)CC[C@H](NC(=O)CCCCCCCCCCCCC(=O)O)C(=O)O)C(=O)N[C@@](C)(Cc1ccc(O)cc1)C(=O)N[C@@H](CC(C)C)C(=O)N[C@H](C(=O)N[C@@H](CCCCNC(=O)COCCOCCNC(=O)CC[C@H](NC(=O)CCCCCCCCCCCCC(=O)O)C(=O)O)C(=O)NCC(=O)NCC(=O)N1CCC[C@H]1C(=O)N[C@@H](CO)C(=O)N[C@@H](CO)C(=O)NCC(=O)N[C@@H](C)C(=O)N1CCC[C@H]1C(=O)N1CCC[C@H]1C(=O)N1CCC[C@H]1C(=O)N[C@@H](CO)C(N)=O)[C@@H](C)CC)[C@@H](C)CC` [Example 339] showed an Emax (hGIPR; HEK293, cAMP, 37° C., 0.1% bovine casein and 1.0% human serum albumin, percent of maximal response to GIP(1-42)NH2, read-out: hGIPR Emax, % ± SEM) of 87.3%, an EC50 (hGIPR; 37° C., read-out: hGIPR EC50, nM (SEM, n)) of 0.019 nM and an EC50 (hGCGR; cAMP, 37° C., 0.1% bovine casein (no human serum albumin), geometric mean, read-out: hGCGR EC50, nM (SEM, n)) of over 10100 nM. The EC50 (hGCGR; cAMP, 37° C., 0.1% bovine casein and 1.0% human serum albumin, geometric mean (SEM, n), read-out: hGCGR EC50, nM (SEM, n)) was over 10100 nM, the Emax (hGLP-1R; HEK293, cAMP, 37° C., 0.1% bovine casein and 1.0% human serum albumin, read-out: hGLP-1R Emax, % ± SEM) was 115% and the Emax (hGLP-1R; HEK293, cAMP, 37° C., 0.1% bovine casein, arithmetic mean, read-out: hGLP-1R Emax, % ± SEM) was 113%. It also gave an EC50 (hGLP-1R; 37° C., read-out: hGLP-1R EC50, nM (SEM, n)) of 0.308 nM.

`CC[C@H](C)[C@H](NC(=O)[C@H](CCCN)NC(=O)[C@H](CC(=O)O)NC(=O)[C@H](CC(C)C)NC(=O)[C@](C)(CC(C)C)NC(=O)[C@@H](NC(=O)[C@H](CO)NC(=O)[C@H](CCc1ccc(O)cc1)NC(=O)[C@H](CC(=O)O)NC(=O)[C@H](CO)NC(=O)[C@@H](NC(=O)[C@](C)(Cc1ccccc1F)NC(=O)[C@@H](NC(=O)CNC(=O)[C@H](CCC(=O)O)NC(=O)C(C)(C)NC(=O)[C@@H](N)Cc1ccc(O)cc1)[C@@H](C)O)[C@@H](C)O)[C@@H](C)CC)C(=O)N[C@@H](C)C(=O)N[C@@H](CCC(N)=O)C(=O)NC(C)(C)C(=O)N[C@@H](CCC(=O)O)C(=O)N[C@@H](Cc1ccccc1)C(=O)N[C@H](C(=O)N[C@@H](CCCCNC(=O)COCCOCCNC(=O)COCCOCCNC(=O)CC[C@H](NC(=O)CCCCCCCCCOc1ccc(C(=O)O)cc1)C(=O)O)C(=O)N[C@@](C)(Cc1ccc(O)cc1)C(=O)N[C@@H](CC(C)C)C(=O)N[C@H](C(=O)N[C@@H](CCCCNC(=O)COCCOCCNC(=O)COCCOCCNC(=O)CC[C@H](NC(=O)CCCCCCCCCOc1ccc(C(=O)O)cc1)C(=O)O)C(=O)NCC(=O)NCC(=O)N1CCC[C@H]1C(=O)N[C@@H](CO)C(=O)N[C@@H](CO)C(=O)NCC(=O)N[C@@H](C)C(=O)N1CCC[C@H]1C(=O)N1CCC[C@H]1C(=O)N1CCC[C@H]1C(=O)N[C@@H](CO)C(N)=O)[C@@H](C)CC)[C@@H](C)CC` [Example 310] showed an Emax (hGIPR; HEK293, read-out: hGIPR Emax, % ± SEM, 0.1% bovine casein and 1.0% human serum albumin, 37° C., percent of maximal response to GIP(1-42)NH2) of 83.9%, an EC50 (hGIPR; [1]) of 0.025 nM and an EC50 (hGCGR; hGCGR EC50, nM (SEM, n), 0.1% bovine casein and 1.0% human serum albumin, 37° C., geometric mean) of over 9950 nM. It also gave an EC50 (hGCGR; [2]) of over 9950 nM, an Emax (hGLP-1R; HEK293, read-out: hGLP-1R Emax, % ± SEM, cAMP, 37° C., 0.1% bovine casein, arithmetic mean) of 105% and an EC50 (hGLP-1R; [3]) of 0.347 nM.

In the case of `CC[C@H](C)[C@H](NC(=O)[C@H](CC(C)C)NC(=O)[C@](C)(Cc1ccc(O)cc1)NC(=O)[C@@H](CCC(=O)O)NC(=O)[C@@H](NC(=O)[C@H](Cc1ccccc1)NC(=O)[C@H](CCCCNC(=O)COCCOCCNC(=O)COCCOCCNC(=O)CC[C@H](NC(=O)CCCCCCCCCOc1ccc(C(=O)O)cc1)C(=O)O)NC(=O)C(C)(C)NC(=O)[C@H](CCC(N)=O)NC(=O)[C@H](C)NC(=O)[C@H](CCCCNC(=O)COCCOCCNC(=O)COCCOCCNC(=O)CC[C@H](NC(=O)CCCCCCCCCOc1ccc(C(=O)O)cc1)C(=O)O)NC(=O)[C@H](CCCN)NC(=O)[C@H](CC(=O)O)NC(=O)[C@H](CC(C)C)NC(=O)[C@](C)(CC(C)C)NC(=O)[C@@H](NC(=O)C(C)(C)NC(=O)[C@H](Cc1ccncc1)NC(=O)[C@H](CC(=O)O)NC(=O)[C@H](CO)NC(=O)[C@@H](NC(=O)[C@](C)(Cc1ccccc1F)NC(=O)[C@@H](NC(=O)CNC(=O)[C@H](CCC(=O)O)NC(=O)C(C)(C)NC(=O)[C@@H](N)Cc1ccc(O)cc1)[C@@H](C)O)[C@@H](C)O)[C@@H](C)CC)[C@@H](C)CC)C(=O)N[C@@H](CCCN)C(=O)NCC(=O)NCC(=O)N1CCC[C@H]1C(=O)N[C@@H](CO)C(=O)N[C@@H](CO)C(=O)NCC(=O)N[C@@H](C)C(=O)N1CCC[C@H]1C(=O)N1CCC[C@H]1C(=O)N1CCC[C@H]1C(=O)N[C@@H](CO)C(N)=O` [Example 408], the Emax (hGIPR; HEK293, read-out: hGIPR Emax, % ± SEM, cAMP, 37° C., 0.1% bovine casein and 1.0% human serum albumin, percent of maximal response to GIP(1-42)NH2) is reported as 84.4%, the EC50 (hGIPR; [1]) is reported as 0.00888 nM and the EC50 (hGCGR; [2]) is reported as over 9950 nM. It also gave an EC50 (hGCGR; hGCGR EC50, nM (SEM, n), cAMP, 37° C., 0.1% bovine casein and 1.0% human serum albumin, geometric mean (SEM, n)) of over 9950 nM and an EC50 (hGLP-1R; [3]) of 0.227 nM.

In the case of `CC[C@H](C)[C@H](NC(=O)[C@H](CC(C)C)NC(=O)C(C)(Cc1ccc(O)cc1)NC(=O)[C@H](CCCCNC(=O)[C@@H](N)CCCCNC(=O)CC[C@H](NC(=O)CCCCCCCCCCCCC(=O)O)C(=O)O)NC(=O)[C@@H](NC(=O)[C@H](Cc1ccccc1)NC(=O)[C@H](CCC(=O)O)NC(=O)C(C)(C)NC(=O)[C@H](CCC(N)=O)NC(=O)[C@H](C)NC(=O)[C@H](CCCCNC(=O)[C@@H](N)CCCCNC(=O)CC[C@H](NC(=O)CCCCCCCCCCCCC(=O)O)C(=O)O)NC(=O)[C@H](CCCN)NC(=O)[C@H](CC(=O)O)NC(=O)[C@H](CC(C)C)NC(=O)C(C)(CC(C)C)NC(=O)[C@@H](NC(=O)[C@H](CO)NC(=O)[C@H](Cc1ccncc1)NC(=O)[C@H](CC(=O)O)NC(=O)[C@H](CO)NC(=O)[C@@H](NC(=O)C(C)(Cc1ccccc1F)NC(=O)[C@@H](NC(=O)CNC(=O)[C@H](CCC(=O)O)NC(=O)C(C)(C)NC(=O)[C@@H](N)Cc1ccc(O)cc1)[C@@H](C)O)[C@@H](C)O)[C@@H](C)CC)[C@@H](C)CC)C(=O)N[C@@H](CCC(=O)O)C(=O)NCC(=O)NCC(=O)N1CCC[C@H]1C(=O)N[C@@H](CO)C(=O)N[C@@H](CO)C(=O)NCC(=O)N[C@@H](C)C(=O)N1CCC[C@H]1C(=O)N1CCC[C@H]1C(=O)N1CCC[C@H]1C(=O)N[C@@H](CO)C(N)=O` (stereo partly shown) [Example 161], the Emax (hGIPR; HEK293, read-out: hGIPR Emax, % ± SEM, percent of maximal response to GIP(1-42)NH2, 37° C., 0.1% bovine casein, arithmetic mean) is reported as 94.6 ± 1.21%, the EC50 (hGIPR; hGIPR EC50, nM (SEM, n), incubated at 37° C.) is reported as 0.0207 nM and the EC50 (hGCGR; hGCGR EC50, nM (SEM, n), cAMP, incubated at 37° C., 0.1% bovine casein (no human serum albumin), geometric mean) is reported as over 9950 nM. For the same molecule, the EC50 (hGLP-1R; hGLP-1R EC50, nM (SEM, n), incubated at 37° C.) was 0.203 nM.
